Like-named read-outs stand apart in the source and are kept apart here. Starred links: 1 amine or outer side, 2 acyl side, 3 side chain; linkers in the order of their positions; H or OH if unused. Positions of bridges follow the written chain, without caps; N, C: chain ends. Non-standard residues stand in square brackets, D forms with d. Residues, ends and D or L forms follow the SMILES beside them. *: point of attachment. NMedβ3hAla = C[C@H](CC(=O)[*:2])N(C)[*:1]; NMeF = CN[C@@H](Cc1ccccc1)C(=O)O; NMeI = CC[C@H](C)[C@H](NC)C(=O)O; NMeT = CN[C@H](C(=O)O)[C@@H](C)O; hPhe = N[C@@H](CCc1ccccc1)C(=O)O; NMeβAla = CN(CCC(=O)[*:2])[*:1]; NMeD = CN[C@@H](CC(=O)O)C(=O)O; NMeL = CN[C@@H](CC(C)C)C(=O)O; NMeV = CN[C@H](C(=O)O)C(C)C; NMeAbu = CC[C@H](NC)C(=O)O; NMeA = CN[C@@H](C)C(=O)O; Piperidide = C1CCN(*)CC1; Abu = CC[C@H](N)C(=O)O; NBuGly = CCCCNCC(=O)O; βAla = NCCC(=O)O; Sar = CNCC(=O)O; tBu = CC(C)(C)*
Experiments:
[1] = system: Caco-2 cells; experiment: Membrane permeability test using Caco-2 cells with preincubation; format: in vitro ADME
[2] = as above; format: in vitro ADME; settings: Caco-2
[3] = Metabolic stability test: liver microsomal stability assay; format: in vitro ADME, mouse; settings: for microsomal CLint at 1 µM: male, pH 7.4, presence of NADPH, read-out: Mouse Hepatic Microsome CLh,int NADPH(+)
[4] = Caco-2 cells, preincubation 20 to 24 hours, apical FaSSIF/HBSS 1% DMSO pH 6.0, basal HBSS 4% BSA pH 7.4, basal sample at 180 minutes
[5] = preincubation 20 to 24 hours, Apical FaSSIF/HBSS pH 6.0, Basal HBSS 4% BSA pH 7.4, 180 minutes, read-out: Caco2 Papp
[6] = mouse liver microsomes 0.5 mg protein/mL, compound 1 µM
[7] = mouse liver microsomes 0.5 mg protein/mL, compound 1 µM, absence of NADPH

Row | SMILES | Caco2 Papp (10^-6 cm/sec) [1, 4] | Papp A→B [2, 5] [×10⁻⁶ cm/s] | microsomal CLint at 1 µM [3, 6] [µL/min/mg] | Mouse Hepatic Microsome CLh,int NADPH(-) [3, 7] [µL/min/mg Protein] | Caco2 Papp (10^-6 cm/sec) ([1]; Caco-2) | Papp A→B [2] [×10⁻⁶ cm/s] | Mouse Hepatic Microsome CLh,int NADPH(-) [3] [µL/min/mg Protein]
1 | CC[C@@H]1NC(=O)[C@H](Cc2ccccc2)N(C)C(=O)[C@@H]2CCCN2C(=O)[C@H](CC(C)C)N(C)C(=O)[C@H](CC)NC(=O)[C@H](C(C)C)NC(=O)[C@H](CC(C)C)N(C)C(=O)[C@H]([C@@H](C)O)NC(=O)[C@H](Cc2ccccc2)N(C)C(=O)CN(C)C(=O)C[C@@H](C)N(C)C(=O)[C@H](C(C)C)NC(=O)[C@H](CC)N(C)C(=O)[C@H](C)N(C)C1=O [pd070] (cyclo([Abu][NMeA][NMeAbu]V[NMedβ3hAla][Sar][NMeF]T[NMeL]V[Abu][NMeL]P[NMeF])) | 0.03 10^-6 cm/sec | 0.03 | 15 | 14.6 | – | – | –
2 | CC[C@@H]1NC(=O)[C@H]([C@@H](C)O)NC(=O)[C@H](Cc2ccccc2)N(C)C(=O)[C@H](CC(C)C)N(C)C(=O)[C@H](C(C)C)N(C)C(=O)[C@H](CC)N(C)C(=O)[C@H]([C@@H](C)CC)NC(=O)[C@H](CC(C)C)N(C)C(=O)[C@H](C)N(C)C(=O)[C@H](C)NC(=O)C[C@@H](C)N(C)C(=O)[C@H](CC(C)C)N(C)C(=O)[C@H](C)N(C)C(=O)CN(C)C1=O [pd072] (cyclo(A[NMeA][NMeL]I[NMeAbu][NMeV][NMeL][NMeF]T[Abu][Sar][NMeA][NMeL][NMedβ3hAla])) | <0.13 10^-6 cm/sec | < 0.13 | 22.4 | 16.6 | – | – | –
3 | CC[C@H]1C(=O)N(C)[C@@H](CC(C)C)C(=O)N2CCC[C@H]2C(=O)N(C)[C@@H](CC)C(=O)N[C@@H](CCc2ccccc2)C(=O)N(C)[C@@H](C)C(=O)N(C)[C@@H](CC)C(=O)N[C@@H](C(C)C)C(=O)N(C)[C@H](C)CC(=O)N(C)CC(=O)N(C)[C@@H](Cc2ccccc2)C(=O)N[C@@H]([C@@H](C)O)C(=O)N(C)[C@@H](CC(C)C)C(=O)N[C@@H](C(C)C)C(=O)N1C [pd073] (cyclo([NMeA][NMeAbu]V[NMedβ3hAla][Sar][NMeF]T[NMeL]V[NMeAbu][NMeL]P[NMeAbu][hPhe])) | <0.12 10^-6 cm/sec | < 0.12 | 24.3 | 2.9 | – | – | –
4 | CCCCN1CC(=O)N(C)[C@@H](Cc2ccccc2)C(=O)N[C@@H](COC(C)(C)C)C(=O)N(C)[C@@H](CC(C)C)C(=O)NCCC(=O)N(C)[C@@H](C)C(=O)N[C@@H]([C@@H](C)CC)C(=O)N(C)[C@@H](CC(C)C)C(=O)N[C@@H](C(C)C)C(=O)N(C)[C@H](C(=O)N2CCCCC2)CC(=O)N(C)CCC(=O)N(C)[C@@H](CC(C)C)C(=O)N[C@@H]([C@@H](C)CC)C(=O)N(C)[C@@H](Cc2ccccc2)C1=O [pd077] ([NMeβAla][NMeL]I[NMeF][NBuGly][NMeF]S(tBu)[NMeL][βAla][NMeA]I[NMeL]V[NMeD]-Piperidide; lactam N-14) | 0.32 10^-6 cm/sec | 0.32 | 40 | 40.3 | – | – | –
5 | CC[C@H](C)[C@@H]1NC(=O)[C@H](CC(C)C)N(C)C(=O)[C@H](CC(C)C)NC(=O)[C@H](C)N(C)C(=O)C[C@@H](C(=O)N2CCCCC2)N(C)C(=O)[C@H](C)N(C)C(=O)[C@H](CC(C)C)NC(=O)[C@H](C(C)C)N(C)C(=O)[C@H](CC(C)C)N(C)C(=O)CNC(=O)[C@H]([C@@H](C)CC)N(C)C(=O)[C@H](Cc2ccccc2)N(C)C(=O)[C@H](C)NC(=O)[C@H](Cc2ccccc2)N(C)C1=O [pd079] ([NMeA]L[NMeL]I[NMeF]A[NMeF][NMeI]G[NMeL][NMeV]L[NMeA][NMeD]-Piperidide; lactam N-14) | 0.12 10^-6 cm/sec | 0.12 | 26.1 | 38.4 | – | – | –
6 | CC[C@@H]1NC(=O)[C@H](C(C)C)N(C)C(=O)[C@H](C)N(C)C(=O)[C@H](Cc2ccccc2)N(C)C(=O)[C@H](CC(C)C)NC(=O)[C@H](Cc2ccccc2)N(C)C(=O)[C@H](C(C)C)NC(=O)[C@H](CC(C)C)N(C)C(=O)[C@H]([C@@H](C)CC)NC(=O)[C@H](CC(C)C)N(C)C(=O)CN(C)C(=O)C[C@@H](C(=O)N2CCCCC2)N(C)C(=O)CNC(=O)[C@H](C)N(C)C1=O [pd080] ([Sar][NMeL]I[NMeL]V[NMeF]L[NMeF][NMeA][NMeV][Abu][NMeA]G[NMeD]-Piperidide; lactam N-14) | 0.25 10^-6 cm/sec | 0.25 | 29.3 | 27.8 | – | – | –
7 | CC[C@H](C)[C@@H]1NC(=O)[C@H]([C@@H](C)CC)N(C)C(=O)[C@@H](C)NC(=O)C[C@@H](C(=O)N2CCCCC2)N(C)C(=O)[C@H](Cc2ccccc2)N(C)C(=O)[C@H](C(C)C)NC(=O)CCN(C)C(=O)[C@H](CC)N(C)C(=O)[C@H](CC(C)C)N(C)C(=O)[C@H](C)NC(=O)CN(C)C(=O)[C@H](CC(C)C)N(C)C(=O)CCN(C)C(=O)[C@H](Cc2ccccc2)N(C)C1=O [pd081] ([dA][NMeI]I[NMeF][NMeβAla][NMeL][Sar]A[NMeL][NMeAbu][NMeβAla]V[NMeF][NMeD]-Piperidide; lactam N-14) | – | – | – | – | 0.02 10^-6 cm/sec | 0.02 | 5.7

More lines, main results first:

Row | Caco2 Papp (10^-6 cm/sec) [1, 4] | Papp A→B [2, 5] [×10⁻⁶ cm/s] | microsomal CLint at 1 µM [3, 6] [µL/min/mg] | Mouse Hepatic Microsome CLh,int NADPH(-) [3, 7] [µL/min/mg Protein] | SMILES | Caco2 Papp (10^-6 cm/sec) ([1]; Caco-2) | Papp A→B [2] [×10⁻⁶ cm/s] | Mouse Hepatic Microsome CLh,int NADPH(-) [3] [µL/min/mg Protein]
8 | <0.12 10^-6 cm/sec | < 0.12 | 17 | 10.8 | CC[C@@H]1NC(=O)[C@@H]2CCCN2C(=O)[C@H](CC(C)C)N(C)C(=O)[C@H](C(C)C)NC(=O)[C@H](CC(C)C)N(C)C(=O)[C@H]([C@@H](C)O)NC(=O)[C@H](Cc2ccccc2)N(C)C(=O)CN(C)C(=O)C[C@@H](C)N(C)C(=O)[C@H](C(C)C)NC(=O)[C@H](COC(C)(C)C)NC(=O)[C@H](C)N(C)C(=O)[C@H](CC(C)C)NC(=O)[C@H](Cc2ccccc2)N(C)C1=O [pd067] (cyclo([Abu][NMeF]L[NMeA]S(tBu)V[NMedβ3hAla][Sar][NMeF]T[NMeL]V[NMeL]P)) | – | – | –
9 | 0.27 10^-6 cm/sec | 0.27 | 15.7 | 12.5 | CC[C@@H]1NC(=O)[C@H](C(C)C)N(C)C(=O)[C@H](C)N(C)C(=O)[C@H](C(C)C)N(C)C(=O)[C@H](CC)N(C)C(=O)[C@H](Cc2ccccc2)N(C)C(=O)[C@H]([C@@H](C)O)N(C)C(=O)CNC(=O)[C@H](CC(C)C)N(C)C(=O)[C@H](C(C)C)NC(=O)[C@H](COC(C)(C)C)NC(=O)[C@H](CC(C)C)N(C)C(=O)[C@@H](C(C)C)NC(=O)C[C@@H](C)N(C)C1=O [pd068] (cyclo([Abu][NMedβ3hAla][dV][NMeL]S(tBu)V[NMeL]G[NMeT][NMeF][NMeAbu][NMeV][NMeA][NMeV])) | – | – | –
10 | <0.08 10^-6 cm/sec | < 0.08 | 16.5 | 20.5 | CC[C@@H]1NC(=O)[C@H]([C@@H](C)O)NC(=O)[C@H](Cc2ccccc2)N(C)C(=O)[C@H](CC(C)C)N(C)C(=O)[C@H](C(C)C)NC(=O)[C@H]([C@@H](C)CC)N(C)C(=O)[C@H]([C@@H](C)CC)NC(=O)[C@H](CC(C)C)N(C)C(=O)[C@H](C)N(C)C(=O)[C@H](C)NC(=O)C[C@@H](C)N(C)C(=O)[C@H](CC(C)C)N(C)C(=O)[C@H](C)N(C)C(=O)CN(C)C1=O [pd069] (cyclo(A[NMeA][NMeL]I[NMeI]V[NMeL][NMeF]T[Abu][Sar][NMeA][NMeL][NMedβ3hAla])) | – | – | –
11 | 0.22 10^-6 cm/sec | 0.22 | 13.3 | 6.2 | CC[C@H]1C(=O)N(C)[C@H](C)CC(=O)N[C@H](C(C)C)C(=O)N(C)[C@@H](CC(C)C)C(=O)N(C)[C@@H](C(C)C)C(=O)N[C@@H](C)C(=O)N(C)[C@@H](CC(C)C)C(=O)NCC(=O)N(C)[C@@H]([C@@H](C)O)C(=O)N(C)[C@@H](Cc2ccccc2)C(=O)N(C)[C@@H](CC)C(=O)N[C@@H](COC(C)(C)C)C(=O)N(C)[C@@H](C)C(=O)N(C)[C@@H](C(C)C)C(=O)N1C [pd071] (cyclo(A[NMeL]G[NMeT][NMeF][NMeAbu]S(tBu)[NMeA][NMeV][NMeAbu][NMedβ3hAla][dV][NMeL][NMeV])) | – | – | –
12 | 0.17 10^-6 cm/sec | 0.17 | 35.6 | 42.8 | CC[C@@H]1NC(=O)[C@H](CC(C)C)N(C)C(=O)[C@H](CC(C)C)NC(=O)[C@H](C)N(C)C(=O)C[C@@H](C(=O)N2CCCCC2)N(C)C(=O)[C@H](C)N(C)C(=O)[C@H](CC(C)C)NC(=O)[C@H](CC(C)C)N(C)C(=O)CNC(=O)[C@H]([C@@H](C)CC)N(C)C(=O)[C@H](Cc2ccccc2)N(C)C(=O)[C@H](C)NC(=O)[C@H]([C@@H](C)CC)NC(=O)[C@H](Cc2ccccc2)N(C)C1=O [pd075] ([NMeA]L[NMeL][Abu][NMeF]IA[NMeF][NMeI]G[NMeL]L[NMeA][NMeD]-Piperidide; lactam N-14) | – | – | –
13 | 2.75 10^-6 cm/sec | 2.75 | 28.3 | 22.9 | CC[C@@H]1NC(=O)[C@H](CC(C)C)N(C)C(=O)C[C@@H](C(=O)N2CCCCC2)N(C)C(=O)[C@H](C(C)C)NC(=O)[C@H](CC(C)C)N(C)C(=O)[C@H](C)NC(=O)[C@H](CC)N(C)C(=O)[C@H](C(C)C)NC(=O)[C@H](CC(C)C)N(C)C(=O)[C@H](C)N(C)C(=O)[C@H](Cc2ccccc2)N(C)C(=O)[C@H](C(C)C)NC(=O)[C@@H]2CCCN2C(=O)[C@H](C(C)C)N(C)C1=O [pd078] ([NMeL][Abu][NMeV]PV[NMeF][NMeA][NMeL]V[NMeAbu]A[NMeL]V[NMeD]-Piperidide; lactam N-14) | – | – | –

— patent publication EP4768499A1, “MACROCYCLIC PEPTIDE COMPOUND HAVING CELL MEMBRANE PERMEABILITY AND METABOLIC STABILITY, AND LIBRARY CONTAINING SAME” (Chugai Seiyaku Kabushiki Kaisha, priority 2023, dated 2025)
